Results taken from patent US10844077B2, “Thiazolyl-containing compounds for treating proliferative diseases” (Dana-Farber Cancer Institute, Inc., priority 2014, dated 2020).
“And” between values parts separate entries of the source, which are not always exact repeats. Equal entries are not always repeated.

Key:
AurB = AurB (Homo sapiens (Human), UniProt Q96GD4); test: KINATIV assay; format: cell-based; conditions: 1 μM, 90 minutes, BCWM.1 cells
Method in brief: (§1)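 An ATP-biotin probe is applied directly to lysates of harvested cells, and the kinases it binds are identified and quantified via ACTIVX.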

CDK9 = CDK9 (Homo sapiens (Human), UniProt P50750); test: KINATIV assay; format: cell-based; conditions: 1 μM, 90 minutes, BCWM.1 cells
Method in brief: as §1

CHK1 = CHK1 (Homo sapiens (Human), UniProt O14757); test: KINATIV assay; format: cell-based; conditions: 1 μM, 90 minutes, BCWM.1 cells
Method in brief: as §1

FRAP = FRAP (Homo sapiens (Human), UniProt P42345); test: KINATIV assay; format: cell-based; conditions: 1 μM, 90 minutes, BCWM.1 cells
Method in brief: as §1

FYN, SRC, YES = test: KINATIV assay; format: cell-based; conditions: 1 μM, 90 minutes, BCWM.1 cells
Method in brief: as §1

GCN2 = GCN2 (Homo sapiens (Human), UniProt Q9P2K8); test: KINATIV assay; format: cell-based; conditions: 1 μM, 90 minutes, BCWM.1 cells
Sequence of GCN2 (Q9P2K8 whole entry): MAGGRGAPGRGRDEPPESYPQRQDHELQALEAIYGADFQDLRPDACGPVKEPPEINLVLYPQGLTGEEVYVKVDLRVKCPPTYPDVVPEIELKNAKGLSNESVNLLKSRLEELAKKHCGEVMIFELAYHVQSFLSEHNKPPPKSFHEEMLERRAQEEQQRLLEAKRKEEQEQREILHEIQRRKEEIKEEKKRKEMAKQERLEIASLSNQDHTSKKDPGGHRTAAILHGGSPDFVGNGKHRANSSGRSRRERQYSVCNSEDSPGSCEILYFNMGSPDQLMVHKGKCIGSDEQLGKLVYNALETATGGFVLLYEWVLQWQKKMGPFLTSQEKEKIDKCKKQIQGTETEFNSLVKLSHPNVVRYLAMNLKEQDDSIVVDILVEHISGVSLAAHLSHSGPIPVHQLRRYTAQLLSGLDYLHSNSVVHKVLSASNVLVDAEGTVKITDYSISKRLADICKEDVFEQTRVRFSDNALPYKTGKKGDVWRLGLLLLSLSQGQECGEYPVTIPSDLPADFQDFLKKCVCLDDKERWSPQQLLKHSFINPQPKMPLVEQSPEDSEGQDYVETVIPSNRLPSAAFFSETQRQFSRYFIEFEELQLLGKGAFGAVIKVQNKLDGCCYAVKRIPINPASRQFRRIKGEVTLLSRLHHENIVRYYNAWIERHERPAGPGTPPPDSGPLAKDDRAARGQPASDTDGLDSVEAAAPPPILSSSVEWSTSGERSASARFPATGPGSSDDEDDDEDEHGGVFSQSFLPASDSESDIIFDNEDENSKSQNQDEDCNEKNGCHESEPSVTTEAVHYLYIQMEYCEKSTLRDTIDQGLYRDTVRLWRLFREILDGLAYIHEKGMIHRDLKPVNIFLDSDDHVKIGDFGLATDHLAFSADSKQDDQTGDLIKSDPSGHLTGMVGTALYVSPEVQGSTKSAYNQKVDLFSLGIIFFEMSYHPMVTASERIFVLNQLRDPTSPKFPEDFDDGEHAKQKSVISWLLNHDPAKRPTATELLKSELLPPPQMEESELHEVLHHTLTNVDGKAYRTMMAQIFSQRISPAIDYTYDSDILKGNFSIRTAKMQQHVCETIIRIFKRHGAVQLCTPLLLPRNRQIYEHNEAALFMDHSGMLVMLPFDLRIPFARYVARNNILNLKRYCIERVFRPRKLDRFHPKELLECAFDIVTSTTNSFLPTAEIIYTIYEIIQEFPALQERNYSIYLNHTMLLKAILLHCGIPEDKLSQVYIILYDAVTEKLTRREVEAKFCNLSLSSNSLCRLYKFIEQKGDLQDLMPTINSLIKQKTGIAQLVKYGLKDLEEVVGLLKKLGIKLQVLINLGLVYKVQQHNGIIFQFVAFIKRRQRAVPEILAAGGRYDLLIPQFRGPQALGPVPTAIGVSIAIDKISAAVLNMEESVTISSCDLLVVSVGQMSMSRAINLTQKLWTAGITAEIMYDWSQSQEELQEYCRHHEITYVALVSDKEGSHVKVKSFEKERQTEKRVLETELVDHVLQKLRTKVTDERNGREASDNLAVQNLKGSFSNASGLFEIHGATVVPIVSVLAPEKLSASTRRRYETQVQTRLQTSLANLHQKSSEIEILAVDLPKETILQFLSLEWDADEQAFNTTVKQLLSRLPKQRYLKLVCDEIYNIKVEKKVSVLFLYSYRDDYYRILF
Method in brief: as §1

GSK3A = GSK3A (Homo sapiens (Human), UniProt P49840); test: KINATIV assay; format: cell-based; conditions: 1 μM, 90 minutes, BCWM.1 cells
Method in brief: as §1

GSK3B = GSK3B (Homo sapiens (Human), UniProt P49841); test: KINATIV assay; format: cell-based; conditions: GSK3B; 1 μM, 90 minutes, BCWM.1 cells
Method in brief: as §1

ILK = ILK (Homo sapiens (Human), UniProt Q13418); test: KINATIV assay; format: cell-based; conditions: 1 μM, 90 minutes, BCWM.1 cells
Method in brief: as §1

IRAK4 = IRAK4 (Homo sapiens (Human), UniProt Q9NWZ3); test: KINATIV assay; format: cell-based; conditions: 1 μM, 90 minutes, BCWM.1 cells
Sequence of IRAK4 (Q9NWZ3 whole entry): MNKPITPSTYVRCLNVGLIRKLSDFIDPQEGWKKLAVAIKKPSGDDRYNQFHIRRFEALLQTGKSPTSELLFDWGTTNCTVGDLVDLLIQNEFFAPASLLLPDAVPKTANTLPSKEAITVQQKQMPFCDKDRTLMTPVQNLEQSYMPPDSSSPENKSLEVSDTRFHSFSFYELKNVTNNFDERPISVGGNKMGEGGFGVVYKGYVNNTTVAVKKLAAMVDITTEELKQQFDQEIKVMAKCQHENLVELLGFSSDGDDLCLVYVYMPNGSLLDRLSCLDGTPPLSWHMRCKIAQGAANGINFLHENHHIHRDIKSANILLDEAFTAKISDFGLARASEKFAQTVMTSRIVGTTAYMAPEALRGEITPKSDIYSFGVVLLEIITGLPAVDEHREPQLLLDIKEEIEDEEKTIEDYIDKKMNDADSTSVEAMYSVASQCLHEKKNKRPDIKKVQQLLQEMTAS
Method in brief: as §1

ITPK1 = ITPK1 (Homo sapiens (Human), UniProt Q13572); test: KINATIV assay; format: cell-based; conditions: 1 μM, 90 minutes, BCWM.1 cells
Sequence of ITPK1 (Q13572 whole entry): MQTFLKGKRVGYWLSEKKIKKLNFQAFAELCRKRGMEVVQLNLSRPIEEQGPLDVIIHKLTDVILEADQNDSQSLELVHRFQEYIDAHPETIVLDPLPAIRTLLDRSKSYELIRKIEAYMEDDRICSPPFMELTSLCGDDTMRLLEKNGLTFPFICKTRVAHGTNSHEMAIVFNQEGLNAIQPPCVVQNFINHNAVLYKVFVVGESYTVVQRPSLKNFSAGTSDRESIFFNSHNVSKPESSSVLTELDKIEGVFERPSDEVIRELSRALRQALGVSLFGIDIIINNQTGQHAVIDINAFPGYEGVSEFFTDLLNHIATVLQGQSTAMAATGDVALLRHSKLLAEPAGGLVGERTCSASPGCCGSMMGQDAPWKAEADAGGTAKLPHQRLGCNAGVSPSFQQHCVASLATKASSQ
Method in brief: as §1

JAK1 = JAK1 (Homo sapiens (Human), UniProt P23458); test: KINATIV assay; format: cell-based; conditions: 1 μM, 90 minutes, BCWM.1 cells
Method in brief: as §1

KHS1 = KHS1 (Homo sapiens (Human), UniProt Q9Y4K4); test: KINATIV assay; format: cell-based; conditions: 1 μM, 90 minutes, BCWM.1 cells
Method in brief: as §1

LKB1 = LKB1 (Homo sapiens (Human), UniProt Q15831); test: KINATIV assay; format: cell-based; conditions: 1 μM, 90 minutes, BCWM.1 cells
Method in brief: as §1

LYN = LYN (Homo sapiens (Human), UniProt P07948); test: KINATIV assay; format: cell-based; conditions: 1 μM, 90 minutes, BCWM.1 cells
Sequence of LYN (P07948 whole entry): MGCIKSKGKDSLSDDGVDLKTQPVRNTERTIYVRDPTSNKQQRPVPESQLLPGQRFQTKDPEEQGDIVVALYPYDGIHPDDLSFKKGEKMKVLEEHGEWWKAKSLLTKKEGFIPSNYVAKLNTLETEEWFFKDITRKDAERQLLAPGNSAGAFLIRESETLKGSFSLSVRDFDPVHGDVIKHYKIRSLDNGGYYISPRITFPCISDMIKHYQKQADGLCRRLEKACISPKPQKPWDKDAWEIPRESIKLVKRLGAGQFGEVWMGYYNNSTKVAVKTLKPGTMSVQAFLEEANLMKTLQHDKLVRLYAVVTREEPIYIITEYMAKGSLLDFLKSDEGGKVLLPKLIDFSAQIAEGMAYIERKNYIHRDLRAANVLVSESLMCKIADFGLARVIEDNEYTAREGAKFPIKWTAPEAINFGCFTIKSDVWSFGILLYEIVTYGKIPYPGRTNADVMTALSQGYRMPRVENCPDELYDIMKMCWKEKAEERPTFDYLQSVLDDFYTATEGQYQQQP
Method in brief: as §1

MAP2K6 = MAP2K6 (Homo sapiens (Human), UniProt P52564); test: KINATIV assay; format: cell-based; conditions: 1 μM, 90 minutes, BCWM.1 cells
Sequence of MAP2K6 (P52564 whole entry): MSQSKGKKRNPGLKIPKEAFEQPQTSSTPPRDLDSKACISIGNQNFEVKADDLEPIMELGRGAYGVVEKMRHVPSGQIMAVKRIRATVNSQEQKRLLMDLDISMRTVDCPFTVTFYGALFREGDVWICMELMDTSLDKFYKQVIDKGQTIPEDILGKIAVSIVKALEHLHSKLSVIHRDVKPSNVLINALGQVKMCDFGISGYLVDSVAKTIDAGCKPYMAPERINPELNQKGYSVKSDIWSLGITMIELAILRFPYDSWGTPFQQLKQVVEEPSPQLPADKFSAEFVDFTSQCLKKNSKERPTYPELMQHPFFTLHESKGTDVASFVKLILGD
Method in brief: as §1

MAP3K15, MAP3K5, MAP3K6 = test: KINATIV assay; format: cell-based; conditions: 1 μM, 90 minutes, BCWM.1 cells
Method in brief: as §1

MARK2 = MARK2 (Homo sapiens (Human), UniProt Q7KZI7); test: KINATIV assay; format: cell-based; conditions: 1 μM, 90 minutes, BCWM.1 cells
Method in brief: as §1

MARK3, MARK4 = test: KINATIV assay; format: cell-based; conditions: 1 μM, 90 minutes, BCWM.1 cells
Method in brief: as §1

MAST1, MAST2 = test: KINATIV assay; format: cell-based; conditions: 1 μM, 90 minutes, BCWM.1 cells
Method in brief: as §1

NEK6, NEK7 = test: KINATIV assay; format: cell-based; conditions: 1 μM, 90 minutes, BCWM.1 cells
Method in brief: as §1

PIK3CB = PIK3CB (Homo sapiens (Human), UniProt P42338); test: KINATIV assay; format: cell-based; conditions: 1 μM, 90 minutes, BCWM.1 cells
Method in brief: as §1

ROCK1 = ROCK1 (Homo sapiens (Human), UniProt Q13464); test: KINATIV assay; format: cell-based; conditions: 1 μM, 90 minutes, BCWM.1 cells
Method in brief: as §1

RSK1, RSK2, RSK3 domain1 = test: KINATIV assay; format: cell-based; conditions: 1 μM, 90 minutes, BCWM.1 cells
Method in brief: as §1

SNRK = SNRK (Homo sapiens (Human), UniProt Q9NRH2); test: KINATIV assay; format: cell-based; conditions: 1 μM, 90 minutes, BCWM.1 cells
Sequence of SNRK (Q9NRH2 whole entry): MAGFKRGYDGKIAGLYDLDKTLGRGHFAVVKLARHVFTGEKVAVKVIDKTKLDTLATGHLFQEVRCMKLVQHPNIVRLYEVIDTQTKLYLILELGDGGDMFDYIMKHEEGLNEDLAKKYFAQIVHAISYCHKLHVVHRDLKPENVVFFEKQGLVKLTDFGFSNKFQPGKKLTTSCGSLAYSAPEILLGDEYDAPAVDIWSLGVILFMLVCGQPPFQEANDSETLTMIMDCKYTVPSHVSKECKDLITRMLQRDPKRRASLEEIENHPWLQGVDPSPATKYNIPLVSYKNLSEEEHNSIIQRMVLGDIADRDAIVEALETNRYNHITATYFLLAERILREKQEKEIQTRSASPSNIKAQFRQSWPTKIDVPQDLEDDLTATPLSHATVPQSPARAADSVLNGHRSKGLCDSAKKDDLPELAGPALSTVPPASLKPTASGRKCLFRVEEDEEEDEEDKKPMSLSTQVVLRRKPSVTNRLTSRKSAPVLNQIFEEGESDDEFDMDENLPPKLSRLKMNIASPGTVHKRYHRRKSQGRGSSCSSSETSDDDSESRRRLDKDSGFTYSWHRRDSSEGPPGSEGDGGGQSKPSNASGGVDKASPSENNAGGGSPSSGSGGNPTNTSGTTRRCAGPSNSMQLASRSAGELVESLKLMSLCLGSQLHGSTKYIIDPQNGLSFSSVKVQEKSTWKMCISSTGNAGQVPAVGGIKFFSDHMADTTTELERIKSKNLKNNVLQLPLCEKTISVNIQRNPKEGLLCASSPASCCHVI
Method in brief: as §1

STLK5 = STLK5 (Homo sapiens (Human), UniProt Q7RTN6); test: KINATIV assay; format: cell-based; conditions: 1 μM, 90 minutes, BCWM.1 cells
Sequence of STLK5 (Q7RTN6 whole entry): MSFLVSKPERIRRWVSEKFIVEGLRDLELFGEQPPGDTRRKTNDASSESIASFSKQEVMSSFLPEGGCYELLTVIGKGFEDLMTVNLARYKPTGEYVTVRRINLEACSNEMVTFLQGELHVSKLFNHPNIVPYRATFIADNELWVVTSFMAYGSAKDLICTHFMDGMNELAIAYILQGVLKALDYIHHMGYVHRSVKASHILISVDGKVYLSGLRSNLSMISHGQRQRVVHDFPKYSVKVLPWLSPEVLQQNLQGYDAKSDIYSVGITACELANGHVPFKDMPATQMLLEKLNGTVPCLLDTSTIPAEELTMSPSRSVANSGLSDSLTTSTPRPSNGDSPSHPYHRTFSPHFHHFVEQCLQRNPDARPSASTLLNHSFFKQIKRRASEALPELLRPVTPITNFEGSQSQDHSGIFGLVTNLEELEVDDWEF
Method in brief: as §1

TBK1 = TBK1 (Homo sapiens (Human), UniProt Q9UHD2); test: KINATIV assay; format: cell-based; conditions: 1 μM, 90 minutes, BCWM.1 cells
Method in brief: as §1

TLK2 = TLK2 (Homo sapiens (Human), UniProt Q86UE8); test: KINATIV assay; format: cell-based; conditions: 1 μM, 90 minutes, BCWM.1 cells
Method in brief: as §1

ULK3 = ULK3 (Homo sapiens (Human), UniProt Q6PHR2); test: KINATIV assay; format: cell-based; conditions: 1 μM, 90 minutes, BCWM.1 cells
Sequence of ULK3 (Q6PHR2 whole entry): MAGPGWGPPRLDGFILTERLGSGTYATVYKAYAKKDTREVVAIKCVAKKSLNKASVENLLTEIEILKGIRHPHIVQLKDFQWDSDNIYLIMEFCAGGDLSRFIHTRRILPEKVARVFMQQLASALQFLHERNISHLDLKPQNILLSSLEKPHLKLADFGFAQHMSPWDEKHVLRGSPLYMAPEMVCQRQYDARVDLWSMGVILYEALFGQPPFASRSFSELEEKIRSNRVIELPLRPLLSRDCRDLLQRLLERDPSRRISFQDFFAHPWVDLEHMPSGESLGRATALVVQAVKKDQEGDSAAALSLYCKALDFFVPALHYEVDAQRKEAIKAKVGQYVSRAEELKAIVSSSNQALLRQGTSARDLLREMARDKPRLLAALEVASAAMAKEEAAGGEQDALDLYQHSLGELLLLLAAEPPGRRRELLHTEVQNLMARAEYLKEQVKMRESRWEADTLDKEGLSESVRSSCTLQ
Method in brief: as §1

ZC2/TNIK = ZC2/TNIK (Homo sapiens (Human), UniProt Q9UKE5); test: KINATIV assay; format: cell-based; conditions: 1 μM, 90 minutes, BCWM.1 cells
Method in brief: as §1

p70S6Kb = p70S6Kb (Homo sapiens (Human), UniProt Q9UBS0); test: KINATIV assay; format: cell-based; conditions: 1 μM, 90 minutes, BCWM.1 cells
Method in brief: as §1

MAPKAPK3 = MAPKAPK3 (Homo sapiens (Human), UniProt Q16644)
Protocol: (§2) The cells were harvested and lysed. The lysates were directly labeled with an ATP-biotin probe. Bound kinases were identified and quantitated by ACTIVX as described in Patricelli et al., Biochemistry, 2007, 46(2): 350-358. The compounds were tested in duplicates against duplicate or quadruplicate control samples.

PCTAIRE1 = PCTAIRE1 (Homo sapiens (Human), UniProt Q00536)
Protocol: as §2

PCTAIRE2 = PCTAIRE2 (Homo sapiens (Human), UniProt Q00537)
Protocol: as §2

PRP4 = PRP4 (Homo sapiens (Human), UniProt Q13523)
Protocol: as §2

PRPK = PRPK (Homo sapiens (Human), UniProt Q96S44)
Protocol: as §2

PCTAIRE1, PCTAIRE3 = test: KINATIV assay; format: cell-based; conditions: 1 μM, 90 minutes, BCWM.1 cells
Text: (§3) The cells were harvested and lysed.

PCTAIRE2, PCTAIRE3 = test: KINATIV assay; format: cell-based; conditions: 1 μM, 90 minutes, BCWM.1 cells
Text: as §3

MARK4 = MARK4 (Homo sapiens (Human), UniProt Q96L34); test: KINATIV assay; format: cell-based; conditions: 1 μM, 90 minutes, BCWM.1 cells
Method in brief: as §1

Structure (SMILES) | % change of MS signal compared to control sample (AurB) [%] | % change of MS signal compared to control sample (CDK9) [%] | % change of MS signal compared to control sample (FRAP) [%] | % change of MS signal compared to control sample (FYN, SRC, YES) [%] | % change of MS signal compared to control sample (GCN2) | % change of MS signal compared to control sample (GSK3A) [%] | % change of MS signal compared to control sample (GSK3B) [%] | % change of MS signal compared to control sample (IRAK4) | % change of MS signal compared to control sample (ITPK1) [%] | % change of MS signal compared to control sample (JAK1) [%] | % change of MS signal compared to control sample (KHS1) [%] | % change of MS signal compared to control sample (LKB1) [%] | % change of MS signal compared to control sample (LYN) | % change of MS signal compared to control sample (MAP2K6) | % change of MS signal compared to control sample (MAP3K15, MAP3K5, MAP3K6) [%] | % change of MS signal compared to control sample (MARK2) [%] | % change of MS signal compared to control sample (MARK3, MARK4) [%] | % change of MS signal compared to control sample (MAST1, MAST2) [%] | % change of MS signal compared to control sample (NEK6, NEK7) [%] | % change of MS signal compared to control sample (PIK3CB) [%] | also measured
C=CC(=O)N1CC[C@@H](Nc2nccc(Nc3ncc(C(=O)Nc4c(C)cccc4C)s3)n2)C1 [Example I-4] | −10.1 | −41.9 | 4.9 | 97.4 | −11.0% and −5.7% | −10.5 | 0.7 | 17.8% and 25.9% | 12.8 | −5.7 | −2.1 | −4.5 | >97% and >90% | −18.0% and −10.7% | 2.8 | 3.6 | 19.1 | −62.1 | 3.7 | −61.3 | % change of MS signal compared to control sample (CHK1): 24.1%; % change of MS signal compared to control sample (ILK): −19.1%; % change of MS signal compared to control sample (ROCK1): 6.7%; % change of MS signal compared to control sample (RSK1, RSK2, RSK3 domain1): −44.0%; % change of MS signal compared to control sample (SNRK): 35.3% and 61.9%; % change of MS signal compared to control sample (STLK5): 2.0% and −4.4%; % change of MS signal compared to control sample (TBK1): −34.8%; % change of MS signal compared to control sample (TLK2): 8.7%; % change of MS signal compared to control sample (ULK3): 22.5% and 21.9%; % change of MS signal compared to control sample (ZC2/TNIK): 48.8%; % change of MS signal compared to control sample (p70S6Kb): −72.4%; % change of MS signal compared to control sample (MAPKAPK3): 7.0%; % change of MS signal compared to control sample (PCTAIRE1): 19.0%; % change of MS signal compared to control sample (PCTAIRE2): 13.4%; % change of MS signal compared to control sample (PRP4): 6.9%; % change of MS signal compared to control sample (PRPK): −13.6%; % change of MS signal compared to control sample (PCTAIRE1, PCTAIRE3): 12.7%; % change of MS signal compared to control sample (PCTAIRE2, PCTAIRE3): 27.9%
C=CC(=O)N1CCC(Cn2ccc(Nc3ncc(C(=O)Nc4c(C)cccc4Cl)s3)n2)C1 (stereo not drawn) [II-1] | −7.2 | −57.0 | 8.6 | 88.1 | −6.2% and −4.1% | −11.8 | −5.1 | 15.9% and 18.5% | 14.0 | 5.4 | −0.6 | −1.2 | 88.1% and >90% | −8.3% and −12.6% | 7.5 | 15.4 | 17.4 | −81.3 | −0.2 | −64.9 | % change of MS signal compared to control sample (MARK4): 12.8% and 9.7%; % change of MS signal compared to control sample (ROCK1): 12.8%; % change of MS signal compared to control sample (RSK1, RSK2, RSK3 domain1): −52.0%; % change of MS signal compared to control sample (SNRK): 47.8% and 59.8%; % change of MS signal compared to control sample (STLK5): 2.6% and 3.8%; % change of MS signal compared to control sample (TBK1): −30.2%; % change of MS signal compared to control sample (TLK2): 7.3%; % change of MS signal compared to control sample (ULK3): 22.4% and 22.8%; % change of MS signal compared to control sample (ZC2/TNIK): −10.0%; % change of MS signal compared to control sample (p70S6Kb): −57.1%; % change of MS signal compared to control sample (MAPKAPK3): 6.2%; % change of MS signal compared to control sample (PCTAIRE1): 38.4%; % change of MS signal compared to control sample (PCTAIRE2): 7.7%; % change of MS signal compared to control sample (PRP4): 6.9%; % change of MS signal compared to control sample (PRPK): −5.2%; % change of MS signal compared to control sample (PCTAIRE1, PCTAIRE3): 11.4%; % change of MS signal compared to control sample (PCTAIRE2, PCTAIRE3): 31.8%
